US8420652B2, “Use of aryl piperazine derivatives in manufacturing medicants for treating pain” (NHWA Pharma Corporation, priority 2008, dated 2013)
Read-outs that look alike come from different tables or passages of the source.

Tests used:
Format in all cases: in vivo
Kunming mice = test: Acetic acid-induced writhing test; conditions: for ED50: Mus musculus, read-out: ED50, analgesic activity in writhing test
Procedure: Kunming mice (18-22 g, male and female each half) were divided into a negative control group, an Aspirin control group, a morphine control group and a group of the compound of the invention. Each group of mice were respectively administered corresponding medicine (0.2 ml/10 g) intragastrically or subcutaneously, The mice of the negative control group were administered, the same volume vehicle. After 60 minutes (intragastrically) or 30 minutes (subcutaneously), each group of mice were administered 0.6% acetic acid solution (0.4 ml) by intraperitoneal injecting, and then writhing times in 15 minutes were observed and recorded immediately. Writhing inhibition rate in mice was used as the pharmacodynamic index of analgesic activity. Writhing inhibition rate(%)=(writhing times of negative control group−writhing times of medicine group)/Writhing times of negative control group×100%
ED50 values were calculated according to the result.

KM female mice = test: Hot-plate test in mice; conditions: for ED50: Mus musculus, 1 h, read-out: ED50, analgesic activity in the hot-plate test
Excerpt: Hot-plate test is one of conventional physiological pain models. Mice lick hind paws, jump up and so on when they are subject to thermal stimulus. Analgesics that take effect on central nervous system can increase the thermo-pain threshold, prolong the latency of protective response.
KM female mice weighting 18-22 g were employed in the test. Primary screening was done before the test to remove the animals whose responses were too slow (>30 s) or too sensitive (<6 s). The mice passing the primary screening were divided into a negative control group, a morphine control group and a group of the compound of the invention. Each group of mice were respectively administered corresponding dose of medicine intragastrically or by intravenous injection, and 60 minutes later, a hot-plate test was done on those mice. The time of first licking hind paws and jumping up was recorded (the data over 60 s is recorded as 60) and compared with the latency of the animals in the control group. The analgesic activity of each dose was calculated and ED50 was calculated from the analgesic activity.

Sprague-Dawley (SD) rats [1] = test: Spared nerve injury (SNI) test; conditions: intragastrically on Day 12, 13, 14 after surgery, mechanical allodynia at 60 minutes after administration; for ED50: Rattus norvegicus, po, read-out: ED50, analgesic activity in the spared nerve injury (SNI) test
Excerpt: Neuropathic pain is also called for short as neuralgia, which is a common chronic pain. It is an abnormal pain condition caused by hurt or disease-induced trauma of peripheral or central nerve, and can not be cured effectively till now. Sciatic nerve branches selective injury model (spared nerve injury, SNI) is a neuralgia model established in 2000 (see Spared nerve injury: an animal model of persistent peripheral neuropathic pain, Pain, 2000 August; 87(2): 149-58). The model can produce […] robust mechanical allodynia, so it can simulate the clinic nerve pathologic pain relatively well.
Adult male Sprague-Dawley (SD) rats weighting 200-250 g (Experimental Animal Center of Xuzhou Medical College) were employed in the test after acclimation by feeding for 1 week. First, Sciatic nerve branches selective injury model (spared nerve injury, SNI) was replicated, The rats of successful modeling were administered intragastrically on Day 12, 13, 14 after surgery. The mechanical allodynia were measured at 60 minutes after administration every day (von Frey Cilia Apparatus, manufactured by Institute of Biology Bioengineering, Chinese Academy of Medical Science).

Sprague-Dawley (SD) rats [2] = test: Bee venom test; conditions: for ED50, analgesic activity in the bee venom test: intrathecally, bee venom 5 minutes after administration; for ED50: Rattus norvegicus, central, 5 min, read-out: ED50, analgesic activity in the bee venom test
Procedure: Adult male Sprague-Dawley (SD) rats weighting 200-250 g were used in the test after acclimation by feeding for 1 week. First, tubes were placed intrathecally (i.t.) in rats. The rats with good conditions after 3-4 days were selected for the bee venom test. The animals were divided into an intrathecal DMSO group, an intrathecal morphine group and a group of intrathecal compounds of the invention. 5 minutes after administration, each group of rats was […] injected with 50 μl of bee venom at their left hind limbs. Times of feet spontaneous drawing back every 5 minutes in 60 minutes, as well as total times of feet drawing back in an hour were observed and recorded. The response latency to heat stimulus and threshold of mechanical stimulus on both thenars of each group of rats were measured before intrathecal administration and 2 hours after bee venom injection respectively.

[3] = po, intragastrically, acetic acid 60 minutes after dosing, writhing times in 15 minutes
[4] = sc, subcutaneously (S. C), acetic acid 30 minutes after dosing, writhing times in 15 minutes
[5] = intragastrically, tested 60 minutes after dosing
[6] = intravenous injection, tested 60 minutes after dosing
[7] = intragastrically, acetic acid 60 minutes after dosing, writhing times in 15 minutes
[8] = subcutaneously (S. C), acetic acid 30 minutes after dosing, writhing times in 15 minutes

Compound	ED50, analgesic activity in the hot-plate test (KM female mice; [5]) [mg/kg]	ED50, analgesic activity in the hot-plate test (KM female mice; [6]) [mg/kg]	ED50, analgesic activity in writhing test (Kunming mice; [7]) [mg/kg]	ED50, analgesic activity in writhing test (Kunming mice; [8]) [mg/kg]	ED50, analgesic activity in the spared nerve injury (SNI) test (Sprague-Dawley (SD) rats [1]) [mg/kg]	ED50, analgesic activity in the bee venom test (Sprague-Dawley (SD) rats [2]) [mg/kg]	also measured
CC(=O)Oc1ccccc1C(=O)O [Aspirin, reference compound]							ED50 (Kunming mice; [3]): 100 mg/kg; ED50 (Kunming mice; [4]): 80 mg/kg
COc1ccccc1N1CCN(CC(=O)c2ccccc2)CC1 [Example 1]	25	8	20	15	40		
COc1cccc(N2CCN(CC(=O)c3ccccc3)CC2)c1 [Example 2]			5	2	15	0.1	
COc1ccc(N2CCN(CC(=O)c3ccccc3)CC2)cc1 [Example 3]	50	19	30	20	30		
O=C(CN1CCN(c2ccccc2Cl)CC1)c1ccccc1 [Example 4]			80	36	100		
O=C(CN1CCN(c2cccc(Cl)c2)CC1)c1ccccc1 [Example 5]	55	20	50	18	80	0.06	
O=C(CN1CCN(c2cccc(Cl)c2Cl)CC1)c1ccccc1 [Example 7]	60	20	60	20	60	0.08	
O=C(CN1CCN(c2ccc(F)cc2)CC1)c1ccccc1 [Example 8]							ED50 (KM female mice; [6]): 40 mg/kg; ED50 (KM female mice; po, intragastrically, tested 60 minutes after dosing): 120 mg/kg; ED50 (Sprague-Dawley (SD) rats [2]): 0.12 mg/kg; ED50 (Kunming mice; [3]): 120 mg/kg; ED50 (Kunming mice; [4]): 80 mg/kg; ED50 (Sprague-Dawley (SD) rats [1]): 150 mg/kg
O=C(CN1CCN(c2cccc(C(F)(F)F)c2)CC1)c1ccccc1 [Example 9]	20	5	3	2	10	0.02	
Cc1cccc(N2CCN(CC(=O)c3ccccc3)CC2)c1C [Example 10]	30	10	5	10	15	0.03	
COc1ccc2nc(N3CCN(CC(=O)c4ccccc4)CC3)sc2c1 [Example 11]	150	60	200	120	180	0.2	
Cc1ccc2nc(N3CCN(CC(=O)c4ccccc4)CC3)sc2c1 [Example 12]			180	100	200		
O=C(CN1CCN(c2nc3ccc(Cl)cc3s2)CC1)c1ccccc1 [Example 14]			152	78	152		
O=C(CN1CCN(c2ncccn2)CC1)c1ccccc1 [Example 16]							ED50 (Kunming mice; [3]): 132 mg/kg; ED50 (Kunming mice; [4]): 100 mg/kg; ED50 (Sprague-Dawley (SD) rats [1]): 167 mg/kg
NCC1(CC(=O)O)CCCCC1 [Gabapentin, reference compound]							ED50 (Sprague-Dawley (SD) rats [1]): 50 mg/kg
CN1CC[C@]23c4c5ccc(O)c4O[C@H]2[C@@H](O)C=C[C@H]3[C@H]1C5 [Morphine, reference compound]							ED50 (KM female mice; iv): 1 mg/kg; ED50 (KM female mice; po): 2 mg/kg; ED50 (Sprague-Dawley (SD) rats [2]): 0.005 mg/kg; ED50 (Kunming mice; po): 4 mg/kg; ED50 (Kunming mice; sc): 1 mg/kg
